In article PMC7058083, “Structural basis of ligand binding modes at the human formyl peptide receptor 2” (Nature Communications, 2020):
Numbering of substitutions follows the chain as printed. Residues, ends and D or L forms follow the SMILES beside them. *: point of attachment. For = O=C*

What was measured:
[1] = target: T1, wild-type (WT) and mutant FPR2 (Homo sapiens, UniProt P25090, D281L); assay: Saturation binding of WK(FITC)YMVm, flow cytometry on HEK293F cells; details: FPR2 D281L
T1 construct: expressed in transfected cells; host or cells: HEK293F
T1 sequence (P25090 whole entry D281L): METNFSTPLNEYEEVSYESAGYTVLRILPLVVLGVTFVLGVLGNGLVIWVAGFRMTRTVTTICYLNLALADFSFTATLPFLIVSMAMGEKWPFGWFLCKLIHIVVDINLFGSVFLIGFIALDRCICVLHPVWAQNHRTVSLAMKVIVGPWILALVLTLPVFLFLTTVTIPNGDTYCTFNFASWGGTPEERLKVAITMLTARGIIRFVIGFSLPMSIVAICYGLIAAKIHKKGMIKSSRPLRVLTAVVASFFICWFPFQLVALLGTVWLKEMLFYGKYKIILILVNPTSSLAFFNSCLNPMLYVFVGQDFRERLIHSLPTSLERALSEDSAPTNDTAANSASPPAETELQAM
Procedure: (§1) Flag-tagged wild-type and mutant FPR2s were cloned into the pTT5 vector and expressed in HEK293F cells. The cells were harvested, and washed with Hanks’ Balanced Salt Solution (HBSS) buffer supplemented with 0.5% bovine serum albumin and 20 mM HEPES, pH 7.4. The cells were then resuspended in the same buffer to the final concentration of 1 × 10^6 cells per ml. The cell-surface expression was measured as mentioned above. […] Mean fluorescent intensity of each well was then read by a FCM (flow cytometry) reader (Millipore). […] For competitive binding of fMLFK, cells were plated in 96-well plates (100,000 cells per well), and incubated with WK(FITC)YMVm at 4 °C for 1 h. The following concentrations of WK(FITC)YMVm were used: 10 nM (wild type, L81^2.60F, E89G, and V105^3.32A), 30 nM (D281^7.32G), 40 nM (H102^3.29F, V160^4.60A, L268^ECL3A, N285^7.36A, and F292^7.43A), and 100 nM (L164^4.64A and T177A). Then increasing concentrations of fMLFK (100 nM–1 mM) were added, and incubated for another 1 h on ice. Mean fluorescent intensity values were measured by flow cytometry. Data were analyzed using Prism 7.0.

[2] = target: T2, wild-type (WT) and mutant FPR2 (Homo sapiens, UniProt P25090, F5A); assay: as above; details: FPR2 F5A
T2 construct: expressed in transfected cells; host or cells: HEK293F
T2 sequence (P25090 whole entry F5A): as the sequence (P25090 whole entry D281L) above, with F5A, L281D counted along it
Procedure: as §1

[3] = target: T3, wild-type (WT) and mutant FPR2 (Homo sapiens, UniProt P25090, L164W); assay: as above; details: mutation L164W
T3 construct: expressed in transfected cells; host or cells: HEK293F
T3 sequence (P25090 whole entry L164W): as the sequence (P25090 whole entry D281L) above, with L164W, L281D counted along it
Procedure: as §1

[4] = target: T4, wild-type (WT) and mutant FPR2 (Homo sapiens, UniProt P25090, L198A); assay: as above; details: FPR2 L198A
T4 construct: expressed in transfected cells; host or cells: HEK293F
T4 sequence (P25090 whole entry L198A): as the sequence (P25090 whole entry D281L) above, with L198A, L281D counted along it
Procedure: as §1

[5] = target: T5, wild-type (WT) and mutant FPR2 (Homo sapiens, UniProt P25090, L81F); assay: as above; details: FPR2 L81F
T5 construct: expressed in transfected cells; host or cells: HEK293F
T5 sequence (P25090 1-351 L81F): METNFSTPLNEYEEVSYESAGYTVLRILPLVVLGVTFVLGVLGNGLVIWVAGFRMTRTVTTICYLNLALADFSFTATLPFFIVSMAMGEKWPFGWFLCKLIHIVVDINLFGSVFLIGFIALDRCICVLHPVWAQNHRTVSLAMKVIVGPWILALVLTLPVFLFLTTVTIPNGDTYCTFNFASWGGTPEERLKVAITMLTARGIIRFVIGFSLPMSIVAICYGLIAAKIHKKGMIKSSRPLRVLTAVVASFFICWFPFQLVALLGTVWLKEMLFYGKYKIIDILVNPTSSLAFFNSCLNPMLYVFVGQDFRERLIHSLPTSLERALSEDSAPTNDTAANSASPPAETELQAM
Procedure: as §1

[6] = target: T6, wild-type (WT) and mutant FPR2 (Homo sapiens, UniProt P25090, R205A); assay: as above; details: mutant R205A
T6 construct: expressed in transfected cells; host or cells: HEK293F
T6 sequence (P25090 whole entry R205A): as the sequence (P25090 whole entry D281L) above, with R205A, L281D counted along it
Procedure: as §1

[7] = target: T7, wild-type (WT) and mutant FPR2 (Homo sapiens, UniProt P25090, S211L); assay: as above
T7 construct: expressed in transfected cells; host or cells: HEK293F
T7 sequence (P25090 other isoform, or with tags, fused parts or gaps S211L): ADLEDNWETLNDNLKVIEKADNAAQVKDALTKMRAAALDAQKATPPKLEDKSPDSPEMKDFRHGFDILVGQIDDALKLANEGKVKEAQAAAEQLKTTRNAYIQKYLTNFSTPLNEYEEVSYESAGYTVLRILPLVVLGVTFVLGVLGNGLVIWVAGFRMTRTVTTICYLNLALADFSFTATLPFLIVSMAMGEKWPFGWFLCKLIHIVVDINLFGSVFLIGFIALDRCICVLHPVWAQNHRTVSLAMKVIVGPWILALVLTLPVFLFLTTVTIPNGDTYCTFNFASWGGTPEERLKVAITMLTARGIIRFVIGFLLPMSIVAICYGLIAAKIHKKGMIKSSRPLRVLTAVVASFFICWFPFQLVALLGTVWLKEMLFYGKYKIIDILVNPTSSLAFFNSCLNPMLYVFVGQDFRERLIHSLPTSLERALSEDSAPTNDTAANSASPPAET
Procedure: as §1

[8] = target: T8, wild-type (WT) and mutant FPR2 (Homo sapiens, UniProt P25090, V105A); assay: as above; details: FPR2 V105A
T8 construct: expressed in transfected cells; host or cells: HEK293F
T8 sequence (P25090 1-351 V105A): T5 sequence (P25090 1-351 L81F) with F81L, V105A
Procedure: as §1

[9] = target: T9, wild-type (WT) and mutant FPR2 (Homo sapiens, UniProt P25090); assay: Competition binding of fMLFK with WK(FITC)YMVm, flow cytometry on HEK293F cells; details: FPR2 WT; mean ± s.e.m., n=5; SEM
T9 construct: expressed in transfected cells; host or cells: HEK293F
T9 sequence (P25090 1-351): T5 sequence (P25090 1-351 L81F) with F81L
Procedure: as §1

[10] = target: T5, wild-type (WT) and mutant FPR2; assay: as above; details: FPR2 L81F; mean ± s.e.m., n=4; SEM
Procedure: as §1

[11] = target: T10, wild-type (WT) and mutant FPR2 (Homo sapiens, UniProt P25090, T177A); assay: as above; details: FPR2 T177A; mean ± s.e.m., n=4; SEM
T10 construct: expressed in transfected cells; host or cells: HEK293F
T10 sequence (P25090 1-351 T177A): T5 sequence (P25090 1-351 L81F) with F81L, T177A
Procedure: as §1

SMILES	Span (% of WT), saturation binding [1]	Kd ([1]; mean ± s.e.m., n=3, SEM)	Span (% of WT), saturation binding [2]	Kd ([2]; mean ± s.e.m., n=3, SEM)	WK(FITC)YMVm binding [3]	Span (% of WT), saturation binding [4]	Kd ([4]; mean ± s.e.m., n=3, SEM)	Span (% of WT), saturation binding [5]	Kd ([5]; mean ± s.e.m., n=3, SEM)	WK(FITC)YMVm binding [6]	Span (% of WT), saturation binding ([7]; FPR2 crystallization construct)	Kd ([7]; FPR2 crystallization construct (N-terminal bRIL, S211L, 5 C-terminal residues truncated), mean ± s.e.m., n=5, SEM)	Span (% of WT), saturation binding [8]	Kd ([8]; mean ± s.e.m., n=4, SEM)	pKi, competition binding [9]	pKi, competition binding [10]	pKi, competition binding [11]
CSCC[C@H](NC(=O)[C@H](Cc1ccc(O)cc1)NC(=O)[C@H](CCCCNC(=S)Nc1ccc2c(c1)C(=O)OC21c2ccc(O)cc2Oc2cc(O)ccc21)NC(=O)[C@@H](N)Cc1c[nH]c2ccccc12)C(=O)N[C@H](C(=O)N[C@H](CCSC)C(N)=O)C(C)C [WK(FITC)YMVm]	39 ± 11 % of WT	57.6 ± 14.0 nM	62 ± 7 % of WT	15.1 ± 7.4 nM	severely impaired	84 ± 14 % of WT	41.5 ± 10.0 nM	42 ± 4 % of WT	24.3 ± 8.4 nM	complete loss	154 ± 21 % of WT	27.7 ± 5.6 nM	68 ± 15 % of WT	25.7 ± 7.5 nM	–	–	–
CSCC[C@H](NC=O)C(=O)N[C@@H](CC(C)C)C(=O)N[C@@H](Cc1ccccc1)C(=O)N[C@@H](CCCCN)C(=O)O [fMLFK] (For-MLFK-OH)	–	–	–	–	–	–	–	–	–	–	–	–	–	–	4.08 ± 0.19	3.97 ± 0.27	3.97 ± 0.21
